Measurements taken from paper PMC10800876, “Evaluation of proline-rich antimicrobial peptides as potential lead structures for novel antimycotics against Cryptococcus neoformans” (Frontiers in Microbiology, 2024).
Read-outs that look alike come from different tables or passages of the source. Residues, ends and D or L forms follow the SMILES beside them.

Assays:
[1] = test system: C. neoformans strains 1841, H99, and KN99α; assay: Broth microdilution assay (MIC); assay type: cell-based, Cryptococcus neoformans
C. neoformans 1841 [2] = assay: Antifungal activity assay (CFU on SAB agar); assay type: cell-based, Cryptococcus neoformans; conditions: treatment 3 h, 30 °C, mean ± SD, n = 4; for cell count C. neoformans 1841, 24 h: CFU counted after 24 h; for cell count C. neoformans 1841, 48 h: CFU counted after 48 h
C. neoformans H99 = assay: Antifungal activity assay (CFU on SAB agar); assay type: cell-based, Cryptococcus neoformans; conditions: treatment 3 h, 30 °C, mean ± SD, n = 4; for cell count C. neoformans H99, 24 h: CFU counted after 24 h; for cell count C. neoformans H99, 48 h: CFU counted after 48 h
C. neoformans KN99α = assay: Antifungal activity assay (CFU on SAB agar); assay type: cell-based, Cryptococcus neoformans; conditions: treatment 3 h, 30 °C, mean ± SD, n = 4; for cell count C. neoformans KN99α, 24 h: CFU counted after 24 h; for cell count C. neoformans KN99α, 48 h: CFU counted after 48 h
[3] = test system: C. neoformans 1841 (serotype D); assay: microbe, parasite or virus in culture; conditions: Cryptococcus neoformans
[4] = test system: C. neoformans H99 (serotype A); assay: microbe, parasite or virus in culture; conditions: Cryptococcus neoformans
[5] = test system: C. neoformans KN99α (serotype A, mating type MATα); assay: microbe, parasite or virus in culture; conditions: Cryptococcus neoformans
[6] = test system: C. neoformans 1841 (serotype D); conditions: broth microdilution, 50% SAB in phosphate buffer pH 7.5, 5 × 10^4 CFU/mL, 30°C; for MIC (μmol/L) 1841 24 h: read after 24 h, mean of six replicates (n = 6); for MIC (μmol/L) 1841 48 h: read after 48 h, n = 6
[7] = test system: C. neoformans H99 (serotype A); conditions: broth microdilution, 50% SAB in phosphate buffer, 30°C, n = 6; for MIC (μmol/L) H99 24 h: read after 24 h; for MIC (μmol/L) H99 48 h: read after 48 h
[8] = test system: C. neoformans KN99α (serotype A, mating type MATα); conditions: broth microdilution, 50% SAB in phosphate buffer, 30°C, n = 6
C. neoformans 1841 [9] = assay: Time-kill assay; assay type: cell-based, Cryptococcus neoformans; conditions: 2.5 μmol/L, 30°C, up to 24 h
Procedure: The kinetic effects of the antifungal activity were determined by diluting overnight cultures to 5 × 10^4 CFU/mL with 50% SAB in phosphate buffer. Aqueous peptide solutions (20 μL) were added to the cell suspension (80 μL) to give a final peptide concentration of 2.5 μmol/L. Samples were incubated at 30°C on an orbital shaker (750 rpm, Titramax 1,000, Heidolph Instruments GmbH & Co. KG) for 24 h. Before incubation (0 min) and after 45 min, 90 min, 3 h, 6 h, and 24 h incubation, aliquots (10 μL) of samples were taken and diluted with phosphate buffer (10 mmol/L, pH 7.5) to observe countable cell colonies. Aliquots (100 μL) of the diluted cell suspensions were plated on SAB agar plates. Plates were incubated at 30°C and colonies were counted after 24 h.

[10] = test system: C. neoformans strains 1841, H99, and KN99α; assay: Antifungal activity assay (CFU); assay type: cell-based, Cryptococcus neoformans; conditions: only small colonies appearing after more than 24 h
[11] = Cryptococcus neoformans, read-out: MIC
[12] = 24 h, pH 7.5, read-out: MIC (μmol/L) 1841 24 h
[13] = 24 h, read-out: MIC (mg/L) 1841 24 h
[14] = 48 h, pH 7.5, read-out: MIC (μmol/L) 1841 48 h
[15] = 48 h, read-out: MIC (mg/L) 1841 48 h
[16] = 24 h, read-out: MIC (mg/L) H99 24 h
[17] = 24 h, read-out: MIC (μmol/L) H99 24 h
[18] = 48 h, read-out: MIC (mg/L) H99 48 h
[19] = 48 h, read-out: MIC (μmol/L) H99 48 h
[20] = 24 h, read-out: MIC (mg/L) KN99α 24 h
[21] = 24 h, read-out: MIC (μmol/L) KN99α 24 h
[22] = 48 h, read-out: MIC (mg/L) KN99α 48 h
[23] = 48 h, read-out: MIC (μmol/L) KN99α 48 h

Compound	MIC [1]	cell count C. neoformans 1841, 24 h (C. neoformans 1841 [2]; 0.25 µmol/L)	cell count C. neoformans 1841, 48 h (C. neoformans 1841 [2]; 0.25 µmol/L)	cell count C. neoformans 1841, 24 h (C. neoformans 1841 [2]; 2.5 µmol/L)	cell count C. neoformans 1841, 48 h (C. neoformans 1841 [2]; 2.5 µmol/L)	cell count C. neoformans 1841, 24 h (C. neoformans 1841 [2]; 25 µmol/L)	cell count C. neoformans 1841, 48 h (C. neoformans 1841 [2]; 25 µmol/L)	cell count C. neoformans H99, 24 h (C. neoformans H99; 0.25 µmol/L)	cell count C. neoformans H99, 48 h (C. neoformans H99; 0.25 µmol/L)	cell count C. neoformans H99, 24 h (C. neoformans H99; 2.5 µmol/L)	cell count C. neoformans H99, 48 h (C. neoformans H99; 2.5 µmol/L)	cell count C. neoformans H99, 24 h (C. neoformans H99; 25 µmol/L)	cell count C. neoformans H99, 48 h (C. neoformans H99; 25 µmol/L)	cell count C. neoformans KN99α, 24 h (C. neoformans KN99α; 0.25 µmol/L)	cell count C. neoformans KN99α, 48 h (C. neoformans KN99α; 0.25 µmol/L)	cell count C. neoformans KN99α, 24 h (C. neoformans KN99α; 2.5 µmol/L)	cell count C. neoformans KN99α, 48 h (C. neoformans KN99α; 2.5 µmol/L)	cell count C. neoformans KN99α, 24 h (C. neoformans KN99α; 25 µmol/L)	cell count C. neoformans KN99α, 48 h (C. neoformans KN99α; 25 µmol/L)	MIC (μmol/L) 1841 24 h [6]	other results
OC(Cn1cncn1)(Cn1cncn1)c1ccc(F)cc1F [Fluconazole, fluconazole, reference compound]	4 to 32 µg/mL	2.5 ± 0.0 x 10^4 CFU/mL	2.5 ± 0.0 x 10^4 CFU/mL	2.7 ± 0.2 x 10^4 CFU/mL	2.7 ± 0.2 x 10^4 CFU/mL	1.9 ± 0.3 x 10^4 CFU/mL	1.9 ± 0.3 x 10^4 CFU/mL	3.4 ± 0.5 x 10^4 CFU/mL	3.8 ± 0.3 x 10^4 CFU/mL	3.4 ± 0.4 x 10^4 CFU/mL	3.5 ± 0.4 x 10^4 CFU/mL	3.3 ± 0.8 x 10^4 CFU/mL	3.5 ± 0.8 x 10^4 CFU/mL	2.9 ± 0.5 x 10^4 CFU/mL	3.0 ± 0.6 x 10^4 CFU/mL	3.3 ± 0.6 x 10^4 CFU/mL	3.4 ± 0.7 x 10^4 CFU/mL	3.2 ± 0.5 x 10^4 CFU/mL	3.3 ± 0.5 x 10^4 CFU/mL	–	MIC [1, 11]: 13 to 105 µM; MIC [3, 12]: 105 µmol/L; MIC [3, 13]: 32 mg/L; MIC [3, 14]: 105 µmol/L; MIC [3, 15]: 32 mg/L; MIC [4, 16]: 16 mg/L; MIC [4, 17]: 53 µmol/L; MIC [4, 18]: 16 to 32 mg/L; MIC [4, 19]: 53 to 105 µmol/L; MIC [5, 20]: 4 mg/L; MIC [5, 21]: 13 µmol/L; MIC [5, 22]: 8 mg/L; MIC [5, 23]: 26 µmol/L
Nc1[nH]c(=O)ncc1F [Flucytosine, flucytosine, reference compound]	≥ 64 µg/mL	2.2 ± 0.1 x 10^4 CFU/mL	2.2 ± 0.1 x 10^4 CFU/mL	2.4 ± 0.2 x 10^4 CFU/mL	2.4 ± 0.2 x 10^4 CFU/mL	2.4 ± 0.0 x 10^4 CFU/mL	2.4 ± 0.0 x 10^4 CFU/mL	3.1 ± 0.8 x 10^4 CFU/mL	3.2 ± 0.7 x 10^4 CFU/mL	3.7 ± 0.4 x 10^4 CFU/mL	3.9 ± 0.3 x 10^4 CFU/mL	3.1 ± 0.5 x 10^4 CFU/mL	3.3 ± 0.6 x 10^4 CFU/mL	3.4 ± 0.7 x 10^4 CFU/mL	3.4 ± 0.8 x 10^4 CFU/mL	3.1 ± 0.5 x 10^4 CFU/mL	3.2 ± 0.5 x 10^4 CFU/mL	3.3 ± 0.5 x 10^4 CFU/mL	3.3 ± 0.5 x 10^4 CFU/mL	–	MIC [1, 11]: ≥ 496 µM; MIC [3, 12]: 496 µmol/L; MIC [3, 13]: 64 mg/L; MIC [3, 14]: 992 µmol/L; MIC [3, 15]: 128 mg/L; MIC [4, 16]: 64 mg/L; MIC [4, 17]: 496 µmol/L; MIC [4, 18]: > 128 mg/L; MIC [4, 19]: > 992 µmol/L; MIC [5, 20]: 128 mg/L; MIC [5, 21]: 992 µmol/L; MIC [5, 22]: > 128 mg/L; MIC [5, 23]: > 992 µmol/L
CC[C@H](C)[C@H](NC(=O)[C@@H]1CCCN1C(=O)[C@H](CCCNC(=N)N)NC(=O)[C@@H]1CCCN1C(=O)[C@@H]1CCCN1C(=O)[C@@H](NC(=O)[C@@H]1CCCN1C(=O)[C@H](CCCNC(=N)N)NC(=O)[C@@H]1CCCN1C(=O)[C@H](CC(C)C)NC(=O)[C@H](Cc1ccc(O)cc1)NC(=O)[C@H](CO)NC(=O)CNC(=O)[C@H](CCCCN)NC(=O)[C@H](CC(=O)O)NC(=O)[C@@H](N)C(C)C)[C@@H](C)O)C(=O)N[C@@H](Cc1ccc(O)cc1)C(=O)N[C@@H](CC(N)=O)C(=O)N[C@@H](CCCNC(=N)N)C(=O)N[C@@H](CC(N)=O)C(=O)O [Pyrrhocoricin, reference compound] (H-VDKGSYLPRPTPPRPIYNRN-OH)	> 55 µM	–	–	–	–	–	–	–	–	–	–	–	–	–	–	–	–	–	–	>55 µmol/L	MIC (μmol/L) 1841 48 h [6]: >55 µmol/L; MIC (μmol/L) H99 24 h [7]: >55 µmol/L; MIC (μmol/L) H99 48 h [7]: >55 µmol/L; MIC (μmol/L) KN99α 24 h ([8]; read after 24 h): >55 µmol/L; MIC (μmol/L) KN99α 48 h ([8]; read after 48 h): >55 µmol/L
RRIRPRPPRLPRPRPRPLPFPRPGPRPIPRPLPFPRPGPRPIPRPLPFPRPGPRPIPRP-OH [Bac7 1–60, reference compound]	1.1 µM	–	–	–	–	–	–	–	–	–	–	–	–	–	–	–	–	–	–	1.1 µmol/L	MIC (μmol/L) 1841 48 h [6]: 1.1 µmol/L; MIC (μmol/L) H99 24 h [7]: 1.1 µmol/L; MIC (μmol/L) H99 48 h [7]: 1.1 µmol/L; MIC (μmol/L) KN99α 24 h ([8]; read after 24 h): 1.1 µmol/L; MIC (mg/L) KN99α 48 h ([8]; read after 48 h): 8 to 16 mg/L; MIC (μmol/L) KN99α 48 h ([8]; read after 48 h): 1.1 to 2.2 µmol/L
gu-OIOIORPVYOPRPRPPHPRL-OH [Api795]	–	1.4 ± 0.6 x 10^4 CFU/mL	1.4 ± 0.6 x 10^4 CFU/mL	2.1 ± 0.1 x 10^4 CFU/mL	2.1 ± 0.1 x 10^4 CFU/mL	0.2 ± 0.0 x 10^4 CFU/mL	0.2 ± 0.0 x 10^4 CFU/mL	3.3 ± 0.3 x 10^4 CFU/mL	3.6 ± 0.6 x 10^4 CFU/mL	1.4 ± 0.4 x 10^4 CFU/mL	2.0 ± 0.2 x 10^4 CFU/mL	0.1 ± 0.0 x 10^4 CFU/mL	0.5 ± 0.2 x 10^4 CFU/mL	2.9 ± 0.3 x 10^4 CFU/mL	2.9 ± 0.4 x 10^4 CFU/mL	1.7 ± 0.7 x 10^4 CFU/mL	1.9 ± 0.8 x 10^4 CFU/mL	0.1 ± 0.1 x 10^4 CFU/mL	0.4 ± 0.1 x 10^4 CFU/mL	1.6 µmol/L	time-dependent antifungal effect (C. neoformans 1841 [9]): delayed antifungal effect; colony formation on agar [10]: delayed colony formation; MIC (μmol/L) 1841 48 h [6]: 3.2 µmol/L; MIC (μmol/L) H99 24 h [7]: 3.2 µmol/L; MIC (μmol/L) H99 48 h [7]: 3.2 µmol/L; MIC (mg/L) KN99α 24 h ([8]; read after 24 h): 4 to 8 mg/L; MIC (μmol/L) KN99α 24 h ([8]; read after 24 h): 1.6 to 3.2 µmol/L; MIC (μmol/L) KN99α 48 h ([8]; read after 48 h): 3.2 µmol/L
